Test results taken from US8846601B2, “Melanocortin receptor-specific peptides” (Palatin Technologies, Inc., priority 2009, dated 2014).
Where two headings read alike, the source gives them in different places. Peptide text beside a SMILES is read from it.

Tests used:
Male Sprague-Dawley rats [1] = experiment: Rat feeding studies: food intake and body weight change; type: in vivo; conditions: for food intake and rate of change in body weight: rat feeding studies, bremelanotide as positive control; for decrease in food consumption compared to control: rats
Protocol: Change in food intake and body weight was evaluated for selected peptides administered by intravenous (IV) or subcutaneous injection routes. Male Sprague-Dawley rats were obtained from Hilltop Lab Animals, Inc. (Scottsdale, Pa.) or other vendors. Animals were individually housed in conventional polystyrene hanging cages and maintained on a controlled 12 hour on/off light cycle. Water and pelleted food was provided ad libitum. The rats were dosed IV with vehicle or selected peptides (0.3 to 1.0 mg/kg), or dosed subcutaneously with vehicle or selected peptides (doses up to 30 mg/kg). […] The changes in body weight and food intake for the 48 hour and 72 hour periods after dosing can also be measured to determine reversal of changes in body weight and food intake effects back to baseline levels.

Male Sprague-Dawley rats [2] = experiment: Induction of penile erection in male rats; type: in vivo, rat; conditions: for induction of penile erection: male Sprague-Dawley rats, subcutaneous, 60 minute observation, No. 154 as trifluoracetic acid salt, No. 155 as acetate salt
Description: Each dose group contained six or seven animals, with video observation for sixty minutes following administration.

[3] = molecular target: T1, MC1-R (B-16 mouse melanoma cells) (Mus musculus (Mouse), UniProt Q01727); experiment: Competitive inhibition binding assay using [I125]-NDP-α-MSH, MC1-R
T1 sequence (Q01727 whole entry): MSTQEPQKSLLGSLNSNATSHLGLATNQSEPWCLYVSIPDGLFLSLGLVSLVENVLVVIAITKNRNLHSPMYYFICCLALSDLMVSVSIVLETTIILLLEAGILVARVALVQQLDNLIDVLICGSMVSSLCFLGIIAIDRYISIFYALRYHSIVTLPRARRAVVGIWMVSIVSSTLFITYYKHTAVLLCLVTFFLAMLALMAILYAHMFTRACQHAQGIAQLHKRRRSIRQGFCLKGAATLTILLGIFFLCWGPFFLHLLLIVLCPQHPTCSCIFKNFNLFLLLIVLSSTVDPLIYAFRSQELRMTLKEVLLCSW
Protocol: (§1) A competitive inhibition binding assay is performed using membrane homogenates prepared from HEK-293 cells that express recombinant hMC4-R, hMC3-R, or hMC5-R, and from B-16 mouse melanoma cells (containing endogenous MC1-R). In some instances, HEK-293 cells that express recombinant hMC1-R were employed. In the examples that follow, all MC3-R, MC4-R and MC5-R values are for human recombinant receptors. MC1-R values are for B-16 mouse melanoma cells, unless the heading is “hMC1-R”, in which case the value is for human recombinant MC1-R. Assays were performed in 96 well GF/B Millipore multiscreen filtration plates (MAFB NOB10) pre-coated with 0.5% bovine serum albumin (Fraction V). […] Filters were dried and counted in a gamma counter for bound radioactivity. […] Maximal specific binding (100%) was defined as the difference in radioactivity (cpm) bound to cell membranes in the absence and presence of 1 μM NDP-α-MSH. […] Ki values for test peptides of the present invention were determined using Graph-Pad Prism® curve-fitting software.

hMC4-R [4] = molecular target: T2, hMC4-R (Homo sapiens (Human), UniProt P32245); experiment: Assay for agonist activity: cAMP accumulation in HEK-293 cells that express hMC4-R; conditions: for functional status at MC4-R (agonist / partial agonist): agonist = intrinsic activity 70% or higher, partial agonist 10-70%
T2 sequence (P32245 whole entry): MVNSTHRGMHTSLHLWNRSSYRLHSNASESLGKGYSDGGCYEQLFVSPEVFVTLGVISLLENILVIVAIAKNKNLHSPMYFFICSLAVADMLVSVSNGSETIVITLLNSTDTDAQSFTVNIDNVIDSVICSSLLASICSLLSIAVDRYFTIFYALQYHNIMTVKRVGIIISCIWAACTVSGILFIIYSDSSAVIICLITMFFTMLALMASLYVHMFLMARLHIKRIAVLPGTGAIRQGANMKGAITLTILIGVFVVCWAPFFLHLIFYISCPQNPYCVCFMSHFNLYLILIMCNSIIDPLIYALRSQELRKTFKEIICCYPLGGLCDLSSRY
Protocol: By “intrinsic activity” is meant the maximal functional activity achievable by a compound in a specified melanocortin receptor expressing cell system, such as the maximal stimulation of adenylyl cyclase.
Accumulation of intracellular cAMP was examined as a measure of the ability of the peptides of the present invention to elicit a functional response in HEK-293 cells that express MC4-R. Confluent HEK-293 cells that express recombinant hMC4-R were detached from culture plates by incubation in enzyme-free cell dissociation buffer. Dispersed cells were suspended in Earle's Balanced Salt Solution containing 10 mM HEPES (pH 7.5), 1 mM MgCl2, 1 mM glutamine, 0.5% albumin and 0.3 mM 3-isobutyl-1-methyl-xanthine (IBMX), a phosphodiesterase inhibitor. […] Cells were exposed for 15 minutes at 37° C. to peptides of the present invention dissolved in DMSO (final DMSO concentration of 1%) at a concentration range of 0.05-5000 nM in a total assay volume of 200 μL. […] Data analysis was performed by nonlinear regression analysis with Graph-Pad Prism® software. The maximum efficacies of the test peptides of the present invention were compared to that achieved by the reference melanocortin agonist NDP-αMSH.

[5] = molecular target: T1, MC1-R (B-16 mouse melanoma cells); experiment: Competitive binding using Eu-labeled NDP-α-MSH, MC1-R
Protocol: A competitive inhibition binding assay is performed using membrane homogenates prepared from HEK-293 cells that express recombinant hMC4-R, hMC3-R, or hMC5-R, and from B-16 mouse melanoma cells (containing endogenous MC1-R). In some instances, HEK-293 cells that express recombinant hMC1-R were employed. In the examples that follow, all MC3-R, MC4-R and MC5-R values are for human recombinant receptors. MC1-R values are for B-16 mouse melanoma cells, unless the heading is “hMC1-R”, in which case the value is for human recombinant MC1-R. Assays were performed in 96 well GF/B Millipore multiscreen filtration plates (MAFB NOB10) pre-coated with 0.5% bovine serum albumin (Fraction V). Membrane homogenates were incubated with 0.2 nM (for hMC4-R) 0.4 nM (for MC3-R and MC5-R) or 0.1 nM (for mouse B16 MC1-R or hMC1-R) [I^125]-NDP-α-MSH (Perkin Elmer) and increasing concentrations of test peptides of the present invention in buffer containing 25 mM HEPES buffer (pH 7.5) with 100 mM NaCl, 2 mM CaCl2, 2 mM MgCl2, 0.3 mM 1,10-phenanthroline, and 0.2% bovine serum albumin. After incubation for 60 minutes at 37° C., the assay mixture was filtered and the membranes washed three times with ice-cold buffer. Filters were dried and counted in a gamma counter for bound radioactivity. […] Maximal specific binding (100%) was defined as the difference in radioactivity (cpm) bound to cell membranes in the absence and presence of 1 μM NDP-α-MSH. […] Ki values for test peptides of the present invention were determined using Graph-Pad Prism® curve-fitting software.
Alternatively, a competitive inhibition binding assay was performed employing Eu-NDP-α-MSH (PerkinElmer Life Sciences catalog No. AD0225) with determination by time-resolved fluorometry (TRF) of the lanthanide chelate. […] The plates were incubated on a shaker for 15 minutes and read at 340 nm excitation and 615 nm emission wavelengths. […] Ki values were determined by curve-fitting with Graph-Pad Prism® software using a one-site fixed-slope competition binding model.

hMC3-R = hMC3-R (Homo sapiens (Human), UniProt P41968); experiment: Competitive binding using Eu-labeled NDP-α-MSH, MC3-R
hMC3-R, sequence (P41968 whole entry): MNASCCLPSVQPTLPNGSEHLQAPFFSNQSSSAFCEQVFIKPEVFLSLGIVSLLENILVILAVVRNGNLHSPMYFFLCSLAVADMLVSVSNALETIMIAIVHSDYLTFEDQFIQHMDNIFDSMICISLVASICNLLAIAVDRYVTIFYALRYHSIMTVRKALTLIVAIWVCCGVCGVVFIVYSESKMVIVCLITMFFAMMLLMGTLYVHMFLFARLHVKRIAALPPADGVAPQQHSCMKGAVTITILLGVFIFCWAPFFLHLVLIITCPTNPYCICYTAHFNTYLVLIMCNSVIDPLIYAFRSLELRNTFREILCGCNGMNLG
Protocol: as §1
Alternatively, a competitive inhibition binding assay was performed employing Eu-NDP-α-MSH (PerkinElmer Life Sciences catalog No. AD0225) with determination by time-resolved fluorometry (TRF) of the lanthanide chelate. […] The plates were incubated on a shaker for 15 minutes and read at 340 nm excitation and 615 nm emission wavelengths. […]

[6] = Pharmacokinetic studies, rat model, subcutaneous injection; conditions: in vivo, sc, formulation as in Section 9.7, read-out: circulation half life (converted)
hMC1-R [7] = molecular target: T3, hMC1-R (Homo sapiens (Human), UniProt Q01726); experiment: Competitive inhibition binding assay, human recombinant MC1-R
T3 sequence (Q01726 whole entry): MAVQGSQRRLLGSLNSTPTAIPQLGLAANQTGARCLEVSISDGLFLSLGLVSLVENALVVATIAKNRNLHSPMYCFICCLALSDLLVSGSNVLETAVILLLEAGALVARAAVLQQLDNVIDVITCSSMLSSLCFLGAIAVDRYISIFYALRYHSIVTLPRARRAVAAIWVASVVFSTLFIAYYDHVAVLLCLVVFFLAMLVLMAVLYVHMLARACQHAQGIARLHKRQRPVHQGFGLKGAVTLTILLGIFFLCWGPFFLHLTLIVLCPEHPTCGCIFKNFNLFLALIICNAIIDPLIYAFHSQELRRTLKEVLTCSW
Protocol: A competitive inhibition binding assay is performed using membrane homogenates prepared from HEK-293 cells that express recombinant hMC4-R, hMC3-R, or hMC5-R, and from B-16 mouse melanoma cells (containing endogenous MC1-R). In some instances, HEK-293 cells that express recombinant hMC1-R were employed. In the examples that follow, all MC3-R, MC4-R and MC5-R values are for human recombinant receptors. […] Membrane homogenates were incubated with 0.2 nM (for hMC4-R) 0.4 nM (for MC3-R and MC5-R) or 0.1 nM (for mouse B16 MC1-R or hMC1-R) [I^125]-NDP-α-MSH (Perkin Elmer) and increasing concentrations of test peptides of the present invention in buffer containing 25 mM HEPES buffer (pH 7.5) with 100 mM NaCl, 2 mM CaCl2, 2 mM MgCl2, 0.3 mM 1,10-phenanthroline, and 0.2% bovine serum albumin. After incubation for 60 minutes at 37° C., the assay mixture was filtered and the membranes washed three times with ice-cold buffer. Filters were dried and counted in a gamma counter for bound radioactivity. […] Maximal specific binding (100%) was defined as the difference in radioactivity (cpm) bound to cell membranes in the absence and presence of 1 μM NDP-α-MSH. […] Each assay was conducted in triplicate and the actual mean values are described, with results less than 0% reported as 0%. Ki values for test peptides of the present invention were determined using Graph-Pad Prism® curve-fitting software.

hMC1-R [8] = molecular target: T3, hMC1-R; experiment: Functional assay (EC50 and intrinsic activity) at hMC1-R; type: cell-based
hMC4-R [9] = molecular target: T2, hMC4-R; experiment: Competitive inhibition binding assay using [I125]-NDP-α-MSH, hMC4-R membranes
Method in brief: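 Membranes from HEK-293 cells expressing recombinant hMC1-R or hMC4-R incubated with 0.1 nM (MC1-R) or 0.2 nM (MC4-R) [I125]-NDP-α-MSH and increasing peptide concentrations in HEPES pH 7.5, 60 min at 37 °C; filtered, gamma counted.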

[10] = 1 mg/kg, 0-2, 0-4 and 0-20 hour periods
[11] = averaged, [I125]-NDP-α-MSH (values not marked *), read-out: MC4-R Ki

| Compound | Ki (hMC1-R [7]) [nM] | EC50 (hMC1-R [8]) [nM] | Ki (hMC4-R [9]; [11]) [nM] | Ki (hMC4-R [9]; read-out: hMC4-R (Ki)) [nM] | EC50 (hMC4-R [4]) [nM] | further results |
| --- | --- | --- | --- | --- | --- | --- |
| CC(=O)N[C@@H](CCCNC(=N)N)C(=O)N[C@H]1CC(=O)NCCCC[C@@H](C(N)=O)NC(=O)[C@H](Cc2c[nH]c3ccccc23)NC(=O)[C@H](CCCNC(=N)N)NC(=O)[C@@H](Cc2ccccc2)NC(=O)[C@H](Cc2c[nH]cn2)NC1=O [Peptide No. 1, Ac-Arg-cyclo(Asp-His- D-Phe-Arg-Trp-Lys)- NH2] | – | – | – | – | – | food intake and rate of change in body weight (Male Sprague-Dawley rats [1]): reduce food intake and decrease the rate of change in body weight; decrease in food consumption compared to control (Male Sprague-Dawley rats [1]; 0.3 mg/kg, 0-2, 0-4 and 0-20 hour periods): statistically significant; decrease in food consumption compared to control (Male Sprague-Dawley rats [1]; [10]): statistically significant; observed spontaneous erections compared to vehicle (Male Sprague-Dawley rats [2]; rats, IV, doses of 0.3 or 1 mg/kg): statistically significant increase; Ki [3]: 3 nM; functional status at MC4-R (agonist / partial agonist) (hMC4-R [4]): agonist; Ki [5]: 4 nM; Ki (hMC3-R): 103 nM |
| CC(=O)N[C@@H](CCCNC(=N)N)C(=O)N[C@H]1CC(=O)NCCCC[C@@H](C(N)=O)NC(=O)[C@H](Cc2c[nH]c3ccccc23)NC(=O)[C@H](CCCNC(=N)N)NC(=O)[C@@H](Cc2ccccc2)NC(=O)[C@H](C(C)C)NC1=O [Peptide No. 16, Ac-Arg-cyclo(Asp-Val- D-Phe-Arg-Trp-Lys)- NH2] | – | – | – | – | – | food intake and rate of change in body weight (Male Sprague-Dawley rats [1]): reduce food intake and decrease the rate of change in body weight; decrease in food consumption compared to control (Male Sprague-Dawley rats [1]; 0.3 mg/kg, 0-2 and 0-4 hour periods): statistically significant; decrease in food consumption compared to control (Male Sprague-Dawley rats [1]; [10]): statistically significant; functional status at MC4-R (agonist / partial agonist) (hMC4-R [4]): partial agonist; Ki [5]: 323 nM; Ki (hMC3-R): 1050 nM |
| CC(=O)N[C@@H](CCCNC(=N)N)C(=O)N[C@H]1CCCNC(=O)CC[C@@H](C(N)=O)NC(=O)[C@H](Cc2c[nH]c3ccccc23)NC(=O)[C@H](CCCNC(=N)N)NC(=O)[C@@H](Cc2ccccc2)NC(=O)[C@H](CC(N)=O)NC1=O [compound 154, Ac-Arg-cyclo(Orn-Asn- D-Phe-Arg-Trp-Glu)- NH2] | 688 | 25 | – | – | – | induction of penile erection (Male Sprague-Dawley rats [2]): robustly induce a penile erection; half-life [6]: ~42 min |
| CC(=O)N[C@@H](CCCNC(=N)N)C(=O)N[C@H]1CCCCNC(=O)C[C@@H](C(N)=O)NC(=O)[C@H](Cc2c[nH]c3ccccc23)NC(=O)[C@H](CCCNC(=N)N)NC(=O)[C@@H](Cc2ccccc2)NC(=O)[C@H](CC(N)=O)NC1=O [compound 155, Ac-Arg-cyclo(Lys-Asn- D-Phe-Arg-Trp-Asp)- NH2] (HELM PEPTIDE1{[ac].R.K.N.[dF].R.W.D.[am]}$PEPTIDE1,PEPTIDE1,3:R3-8:R3$$$V2.0) | 240 | 14 | 5 | 5 | 0.189 | induction of penile erection (Male Sprague-Dawley rats [2]): robustly induce a penile erection; half-life [6]: ~42 min |
| CC(=O)N[C@H](CCCNC(=N)N)C(=O)N[C@H]1CCCNC(=O)CC[C@@H](C(N)=O)NC(=O)[C@H](Cc2c[nH]c3ccccc23)NC(=O)[C@H](CCCNC(=N)N)NC(=O)[C@@H](Cc2ccccc2)NC(=O)[C@H](CC(N)=O)NC1=O [compound 156, Ac-D-Arg-cyclo(Orn- Asn-D-Phe-Arg-Trp- Glu)-NH2] | 840 | 80 | – | – | – | – |
| CC(=O)N[C@@H](CCCNC(=N)N)C(=O)N[C@H]1CCNC(=O)CCC[C@@H](C(N)=O)NC(=O)[C@H](Cc2c[nH]c3ccccc23)NC(=O)[C@H](CCCNC(=N)N)NC(=O)[C@@H](Cc2ccccc2)NC(=O)[C@H](CCC(N)=O)NC1=O [compound 159, Ac-Arg-cyclo(Dab-Gln- D-Phe-Arg-Trp-hGlu)- NH2] | 133 | 26 | 4 | 4 | 0.825 | – |
| CC(=O)N[C@@H](CCCNC(=N)N)C(=O)N[C@H]1CCC(=O)NCCC[C@@H](C(N)=O)NC(=O)[C@H](Cc2c[nH]c3ccccc23)NC(=O)[C@H](CCCNC(=N)N)NC(=O)[C@@H](Cc2ccccc2)NC(=O)[C@H](CC(N)=O)NC1=O [compound 161, Ac-Arg-cyclo(Glu-Asn- D-Phe-Arg-Trp-Orn)- NH2] | 155 | 13 | – | – | – | EC50 (hMC4-R [4]; read-out: hMC4-R EC50): 0.413 nM |
| CC(=O)N[C@@H](CCCNC(=N)N)C(=O)N[C@H]1CCCCNC(=O)C[C@@H](C(N)=O)NC(=O)[C@H](Cc2ccc3ccccc3c2)NC(=O)[C@H](CCCNC(=N)N)NC(=O)[C@@H](Cc2ccccc2)NC(=O)[C@H](CC(N)=O)NC1=O [compound 162, Ac-Arg-cyclo(Lys-Asn- D-Phe-Arg-Nal 2-Asp)- NH2] (HELM PEPTIDE1{[ac].R.K.N.[dF].R.[O=C([C@H](Cc1ccc2ccccc2c1)N[*:1])[*:2]].D.[am]}$PEPTIDE1,PEPTIDE1,3:R3-8:R3$$$V2.0) | 255 | 22 | 5 | 5 | 0.85 | – |
